Laboratory results from paper PMC6522510 (Nature Communications, 2019).
Read-outs that look alike come from different tables or passages of the source.

Experiments:
Test in all cases: Secondary dose-response HTS, Cell Titer Glo; call rule not given here
Format in all cases: cell-based, human
[1] = test system: ML2
[2] = test system: CMS
[3] = test system: U937
[4] = test system: CMK; details: CMK
[5] = test system: MV4-11
[6] = test system: M07e
[7] = test system: MOLM-13
[8] = test system: CHRF288-11
[9] = secondary high-throughput screen, ML-2
[10] = secondary high-throughput screen, CMS
[11] = secondary high-throughput screen, U937
[12] = secondary high-throughput screen
[13] = secondary high-throughput screen, MV4-11
[14] = secondary high-throughput screen, M07e
[15] = secondary high-throughput screen, MOLM-13
[16] = secondary high-throughput screen, CHRF288-11
[17] = Homo sapiens, M-07e, secondary high-throughput screen, M07e, read-out: average effective concentration, M07e
[18] = Homo sapiens, secondary high-throughput screen, ML-2, read-out: average effective concentration, ML-2
[19] = Homo sapiens, HTS, secondary high-throughput screen, CMS, read-out: average effective concentration, CMS
[20] = Homo sapiens, U-937, secondary high-throughput screen, U937, read-out: average effective concentration, U937
[21] = Homo sapiens, secondary high-throughput screen, read-out: average effective concentration, CMK
[22] = Homo sapiens, secondary high-throughput screen, MV4-11, read-out: average effective concentration, MV4-11
[23] = Homo sapiens, secondary high-throughput screen, MOLM-13, read-out: average effective concentration, MOLM-13
[24] = Homo sapiens, HTS, secondary high-throughput screen, CHRF288-11, read-out: average effective concentration, CHRF288-11
[25] = Homo sapiens, ML-2, secondary HTS, 72 h, average of triplicate, read-out: EC50 ML2
[26] = Homo sapiens, secondary HTS, 72 h, average of triplicate, read-out: EC50 CMS
[27] = Homo sapiens, U-937, secondary HTS, 72 h, average of triplicate, read-out: EC50 U937
[28] = Homo sapiens, secondary HTS, 72 h, average of triplicate, read-out: EC50 CMK
[29] = Homo sapiens, MV4-11, secondary HTS, 72 h, average of triplicate, read-out: EC50 MV4-11
[30] = Homo sapiens, M-07e, secondary HTS, 72 h, average of triplicate, read-out: EC50 M07e
[31] = Homo sapiens, MOLM-13, secondary HTS, 72 h, average of triplicate, read-out: EC50 MOLM-13
[32] = Homo sapiens, secondary HTS, 72 h, average of triplicate, read-out: EC50 CHRF288-11
[33] = secondary high-throughput screen, U937, read-out: average effective concentration, U937
[34] = secondary high-throughput screen, MV4-11, read-out: average effective concentration, MV4-11
[35] = secondary high-throughput screen, MOLM-13, read-out: average effective concentration, MOLM-13
[36] = Homo sapiens, HTS, read-out: average effective concentration, CMS
[37] = Homo sapiens, read-out: average effective concentration, CMK

Compound | average effective concentration, ML-2 [1, 9] | average effective concentration, CMS [2, 10] | average effective concentration, U937 [3, 11] | average effective concentration, CMK [4, 12] | average effective concentration, MV4-11 [5, 13] | average effective concentration, M07e [6, 14] | average effective concentration, MOLM-13 [7, 15] | average effective concentration, CHRF288-11 [8, 16] | EC50 [1, 18] [nM] | EC50 [3, 20] [nM] | EC50 [8, 24] [nM] | other results
CCOC(=O)c1cc2ccccc2nc1C [MC-1626] | Inactive | Inactive | Inactive | Inactive | Inactive | Inactive | Inactive | Inactive | – | – | – | –
CC12CC3CC(C)(C1)CC(N)(C3)C2 [MEMANTINE] | Inactive | Inactive | Inactive | Inactive | Inactive | – | Inactive | Inactive | – | – | – | EC50 [6, 17]: > 10000 nM
CN(C)c1ccc2nc3ccc(=[N+](C)C)cc-3sc2c1 [METHYLENE BLUE] | – | – | – | – | – | – | – | – | 5900 | 10000 | 6200 | EC50 [2, 19]: > 10000 nM; EC50 [4, 21]: 3400 nM; EC50 [5, 22]: 1300 nM; EC50 [6, 17]: > 10000 nM; EC50 [7, 23]: 2000 nM
CO[C@@]12[C@H](COC(N)=O)C3=C(C(=O)C(C)=C(N)C3=O)N1C[C@@H]1N[C@@H]12 [MITOMYCIN C] | – | – | – | – | – | – | – | – | 2400 | 4400 | 750 | EC50 [2, 19]: 10000 nM; EC50 [4, 21]: 770 nM; EC50 [5, 22]: 4100 nM; EC50 [6, 17]: 9400 nM; EC50 [7, 23]: 2800 nM
O=C1c2c(O)ccc(O)c2C(=O)c2c(NCCNCCO)ccc(NCCNCCO)c21 [Mitoxantrone, reference compound] | – | – | – | – | – | – | – | – | – | – | – | EC50 [1, 25]: 240 nM; EC50 [2, 26]: 80 nM; EC50 [3, 27]: 30 nM; EC50 [4, 28]: 40 nM; EC50 [5, 29]: 1 nM; EC50 [6, 30]: 30 nM; EC50 [7, 31]: 10 nM; EC50 [8, 32]: 20 nM
Cc1ccc(S(=O)(=O)n2c(N)nc3ccccc32)cc1 [NODINITIB-1] | Inactive | Inactive | Inactive | Inactive | Inactive | Inactive | Inactive | Inactive | – | – | – | –
O=c1cc(N2CCOCC2)oc2c1ccc1ccccc12 [NU 7026] | Inactive | Inactive | Inactive | Inactive | Inactive | Inactive | Inactive | Inactive | – | – | – | –
CC(C)(CCc1ccccc1)C(=O)Nc1ccc(C(=O)NO)cc1 [OSU-HDAC-44] | – | – | – | Inactive | – | – | – | – | – | – | – | EC50 ([1]; secondary high-throughput screen, ML-2, read-out: average effective concentration, ML-2): 1400 nM; EC50 ([2]; secondary high-throughput screen, CMS, read-out: average effective concentration, CMS): 480 nM; EC50 [3, 33]: 490 nM; EC50 [5, 34]: 290 nM; EC50 ([6]; secondary high-throughput screen, M07e, read-out: average effective concentration, M07e): 350 nM; EC50 [7, 35]: 1300 nM; EC50 ([8]; secondary high-throughput screen, CHRF288-11, read-out: average effective concentration, CHRF288-11): 1500 nM
COC[C@H](NC(=O)c1cnc(C)s1)C(=O)N[C@@H](COC)C(=O)N[C@@H](Cc1ccccc1)C(=O)[C@@]1(C)CO1 [Oprozomib, reference compound] | – | – | – | – | – | – | – | – | 5 | 11 | 25 | EC50 [1, 25]: 10 nM; EC50 [2, 26]: 1 nM; EC50 [3, 27]: 10 nM; EC50 [4, 28]: 10 nM; EC50 [4, 21]: 7.6 nM; EC50 [5, 29]: 10 nM; EC50 [6, 30]: 10 nM; EC50 [7, 31]: 10 nM; EC50 [8, 32]: 30 nM
C[C@@H]1O[C@@H](O[C@H]2C[C@@H](O)[C@]3(CO)[C@H]4[C@H](O)C[C@]5(C)[C@@H](C6=CC(=O)OC6)CC[C@]5(O)[C@@H]4CC[C@]3(O)C2)[C@H](O)[C@H](O)[C@H]1O [Ouabain, reference compound] | – | – | – | – | – | – | – | – | 31 | 41 | 43 | EC50 [1, 25]: 30 nM; EC50 [2, 19]: 46 nM; EC50 [2, 26]: 50 nM; EC50 [3, 27]: 40 nM; EC50 [4, 28]: 180 nM; EC50 [5, 29]: 40 nM; EC50 [5, 22]: 38 nM; EC50 [6, 30]: 60 nM; EC50 [6, 17]: 64 nM; EC50 [7, 31]: 30 nM; EC50 [8, 32]: 40 nM
COc1cccc(-c2cc(=O)c3ccccc3o2)c1N [PD 98059] | Inactive | Inactive | Inactive | Inactive | Inactive | Inactive | Inactive | Inactive | – | – | – | –
Cc1cc(I)ccc1Nc1c(C(=O)NOCC2CC2)cc(F)c(F)c1F [PD 198306] | Inactive | Inactive | Inactive | Inactive | Inactive | Inactive | Inactive | Inactive | – | – | – | –
Cn1cc(-c2[nH]c3cc(NC(=O)[C@H](N)C4CCCCC4)cc4c3c2C=NNC4=O)cn1 [PF-477736] | – | – | – | – | – | – | – | – | 28 | 100 | 1200 | EC50 [2, 36]: 6200 nM; EC50 [4, 37]: 220 nM; EC50 [5, 22]: 50 nM; EC50 [6, 17]: 240 nM; EC50 [7, 23]: 18 nM
CN(C)C1CCN(C(=O)c2ccc(NC(=O)Nc3ccc(-c4nc(N5CCOCC5)nc(N5CCOCC5)n4)cc3)cc2)CC1 [PF-05212384] | Inactive | Inactive | – | – | – | Inactive | – | Inactive | – | – | – | EC50 [3, 33]: 24 nM; EC50 ([4]; secondary high-throughput screen, read-out: average effective concentration, CMK): 7700 nM; EC50 [5, 34]: 47 nM; EC50 [7, 35]: 190 nM
Cc1ccc(C(=O)Nc2ccc(CN3CCN(C)CC3)c(C(F)(F)F)c2)cc1C#Cc1cnc2cccnn12 [PONATINIB] | – | – | – | – | – | – | – | – | – | – | – | EC50 ([1]; Homo sapiens, ML-2, read-out: average effective concentration, ML-2): 5300 nM; EC50 [2, 36]: 6700 nM; EC50 ([3]; Homo sapiens, U-937, read-out: average effective concentration, U937): 2500 nM; EC50 [4, 37]: 1600 nM; EC50 ([5]; Homo sapiens, MV4-11, read-out: average effective concentration, MV4-11): 11 nM; EC50 ([6]; Homo sapiens, M-07e, read-out: average effective concentration, M07e): 7000 nM; EC50 ([7]; Homo sapiens, MOLM-13, read-out: average effective concentration, MOLM-13): 17 nM; EC50 ([8]; Homo sapiens, HTS, read-out: average effective concentration, CHRF288-11): 1000 nM; EC50 ([8]; read-out: average effective concentration, CHRF288-11): 980 nM
COC(=O)[C@]1(C)CC[C@]2(C)CC[C@]3(C)C4=CC=C5C(=CC(=O)C(O)=C5C)[C@]4(C)CC[C@@]3(C)[C@@H]2C1 [PRISTIMERIN] | – | – | – | – | Inactive | – | Inactive | – | 120 | 800 | 240 | EC50 [2, 19]: 1500 nM; EC50 [4, 21]: 240 nM; EC50 ([6]; Homo sapiens, M-07e, secondary high-throughput screen, […], read-out: average effective concentration, M07e): 4600 nM
O=C(Nc1cc(Cl)cc2c1[nH]c1cnccc12)c1cccnc1 [PS-1145] | Inactive | Inactive | Inactive | Inactive | Inactive | Inactive | Inactive | Inactive | – | – | – | –
O=C1NC(=O)/C(=C/c2cccc(C(F)(F)F)c2)S1 [SMI-4A] | Inactive | Inactive | Inactive | Inactive | Inactive | Inactive | Inactive | Inactive | – | – | – | –
O=C([O-])Cc1ccccc1.[Na+] [SODIUM PHENYLACETATE] | Inactive | Inactive | Inactive | Inactive | Inactive | – | – | Inactive | – | – | – | average effective concentration, M07e ([6]; secondary high-throughput screen, […]): Inactive; EC50 [7, 35]: 2100 nM
